Assay results from ChEMBL document CHEMBL1201862, “PubChem BioAssay data set” (2004).
Activity calls are given as the source filed them.

Columns and labels:
[1] = target: Eukaryotic translation initiation factor 4E (Mus musculus, UniProt P63073); test: blockers of eIF4G binding by eIF4E – biochemical, TR-FRET, dose response (AID 855); assay type: functional;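 note: potency for disrupting eIF4E binding to eIF4GI seen as loss of FRET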
Troponin, cardiac muscle = Troponin, cardiac muscle (Homo sapiens, UniProt P19429+P45379+P63316); test: Fluorescence-based biochemical high throughput dose response assay for activators of the calcium sensitivity of cardiac Regulated Thin Filaments (RTF). [Related pubchem assays (depositor defined):AID493008, AID493018, AID504382, AID504383]; assay type: protein-complex assay
Aminopeptidase N = target: T1, Aminopeptidase N (Plasmodium falciparum FcB1/Columbia, UniProt O96935); test: malaria alanyl aminopeptidase activity blockers – biochemical, fluorogenic H-Leu-NHMec substrate, 1536-well (AID 1445); set-up: species or system Plasmodium falciparum 3D7, 3D7
T1 sequence (O96935 whole entry): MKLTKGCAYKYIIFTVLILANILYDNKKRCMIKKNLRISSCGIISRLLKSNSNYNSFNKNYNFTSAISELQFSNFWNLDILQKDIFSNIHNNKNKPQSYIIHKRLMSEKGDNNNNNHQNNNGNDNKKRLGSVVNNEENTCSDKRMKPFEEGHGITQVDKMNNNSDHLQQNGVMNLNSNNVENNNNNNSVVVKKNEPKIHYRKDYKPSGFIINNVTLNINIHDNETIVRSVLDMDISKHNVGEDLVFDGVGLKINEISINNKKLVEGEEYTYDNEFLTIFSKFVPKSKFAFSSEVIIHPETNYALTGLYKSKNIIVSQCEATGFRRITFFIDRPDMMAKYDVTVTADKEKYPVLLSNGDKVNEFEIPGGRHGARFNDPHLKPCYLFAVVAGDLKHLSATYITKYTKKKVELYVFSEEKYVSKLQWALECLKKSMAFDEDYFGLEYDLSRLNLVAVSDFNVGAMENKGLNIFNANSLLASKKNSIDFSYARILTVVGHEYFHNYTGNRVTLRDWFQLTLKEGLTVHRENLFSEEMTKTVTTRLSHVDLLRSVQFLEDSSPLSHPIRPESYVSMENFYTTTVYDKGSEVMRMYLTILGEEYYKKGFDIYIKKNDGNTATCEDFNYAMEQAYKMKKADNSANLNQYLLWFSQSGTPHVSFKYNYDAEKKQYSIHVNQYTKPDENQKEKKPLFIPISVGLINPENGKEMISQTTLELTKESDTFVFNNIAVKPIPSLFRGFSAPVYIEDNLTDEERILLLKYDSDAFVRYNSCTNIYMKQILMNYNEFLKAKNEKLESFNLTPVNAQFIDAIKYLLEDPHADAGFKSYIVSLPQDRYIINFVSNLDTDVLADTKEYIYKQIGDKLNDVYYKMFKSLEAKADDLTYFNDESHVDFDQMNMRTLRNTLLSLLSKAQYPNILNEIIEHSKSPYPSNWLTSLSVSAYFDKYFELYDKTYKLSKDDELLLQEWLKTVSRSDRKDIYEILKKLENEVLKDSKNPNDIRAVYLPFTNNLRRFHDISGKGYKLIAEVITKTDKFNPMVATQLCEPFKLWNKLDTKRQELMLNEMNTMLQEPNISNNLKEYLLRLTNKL

Cytochrome P450 1A2 = target: T2, Cytochrome P450 1A2 (Homo sapiens, UniProt P05177);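 note: PubChem cytochrome P450 panel assay, CYP1A2 panel member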
T2 sequence (P05177 whole entry): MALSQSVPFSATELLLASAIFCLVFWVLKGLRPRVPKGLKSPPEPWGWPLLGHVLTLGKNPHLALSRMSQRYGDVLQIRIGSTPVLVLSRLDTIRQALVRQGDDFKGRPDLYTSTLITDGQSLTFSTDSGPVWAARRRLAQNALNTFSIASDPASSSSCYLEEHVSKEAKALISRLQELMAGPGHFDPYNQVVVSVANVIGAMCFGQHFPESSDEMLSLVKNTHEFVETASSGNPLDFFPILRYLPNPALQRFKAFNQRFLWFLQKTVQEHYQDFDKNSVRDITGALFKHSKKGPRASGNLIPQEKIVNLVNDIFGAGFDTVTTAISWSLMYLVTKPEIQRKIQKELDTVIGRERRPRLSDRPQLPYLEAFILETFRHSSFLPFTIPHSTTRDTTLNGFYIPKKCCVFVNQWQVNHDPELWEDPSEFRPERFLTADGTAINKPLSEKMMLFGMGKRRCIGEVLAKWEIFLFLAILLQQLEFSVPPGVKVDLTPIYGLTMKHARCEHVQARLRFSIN

Cytochrome P450 2C9 = Cytochrome P450 2C9 (Homo sapiens, UniProt P11712)
Cytochrome P450 2C9, sequence (P11712 whole entry): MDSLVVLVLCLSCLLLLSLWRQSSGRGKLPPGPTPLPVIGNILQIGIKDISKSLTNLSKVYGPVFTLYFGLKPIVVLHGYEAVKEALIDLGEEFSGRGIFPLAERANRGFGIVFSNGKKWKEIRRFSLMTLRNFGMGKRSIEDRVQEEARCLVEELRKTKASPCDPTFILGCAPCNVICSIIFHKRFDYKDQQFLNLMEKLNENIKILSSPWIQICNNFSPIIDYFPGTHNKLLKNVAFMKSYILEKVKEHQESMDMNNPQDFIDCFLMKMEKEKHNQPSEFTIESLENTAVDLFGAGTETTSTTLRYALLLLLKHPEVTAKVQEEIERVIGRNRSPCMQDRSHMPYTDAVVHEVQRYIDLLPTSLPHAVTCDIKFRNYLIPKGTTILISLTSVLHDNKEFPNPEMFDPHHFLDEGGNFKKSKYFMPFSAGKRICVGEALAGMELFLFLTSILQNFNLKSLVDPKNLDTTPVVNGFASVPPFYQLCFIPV

[2] = target: DNA dC->dU-editing enzyme APOBEC-3G (Homo sapiens, UniProt Q9HC16); test: Dose Response confirmation of small molecule APOBEC3G DNA Deaminase Inhibitors via a fluorescence-based single-stranded DNA deaminase assay. [Related pubchem assays (depositor defined):AID493012, AID493028]; assay type: functional
DNA dC->dU-editing enzyme APOBEC-3G, sequence (Q9HC16 whole entry): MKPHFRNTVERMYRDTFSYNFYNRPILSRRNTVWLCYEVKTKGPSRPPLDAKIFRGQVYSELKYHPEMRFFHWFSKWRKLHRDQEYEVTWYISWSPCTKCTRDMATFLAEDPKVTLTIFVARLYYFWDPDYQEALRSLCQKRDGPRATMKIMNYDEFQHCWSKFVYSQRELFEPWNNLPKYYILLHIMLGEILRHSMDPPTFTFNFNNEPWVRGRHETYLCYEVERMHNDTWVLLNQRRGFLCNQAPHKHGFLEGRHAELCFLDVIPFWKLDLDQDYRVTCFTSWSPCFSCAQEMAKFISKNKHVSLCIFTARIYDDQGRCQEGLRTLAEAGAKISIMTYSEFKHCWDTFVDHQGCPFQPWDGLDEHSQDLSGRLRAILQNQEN

Leucine aminopeptidase = target: T3, Leucine aminopeptidase (Plasmodium falciparum 3D7, UniProt Q8IL11); test: P. falciparum M17LAP inhibitors, primary screen, biochemical, fluorogenic H-Leu-NHMec substrate, 1536-well (AID 1619); assay type: functional
T3 sequence (Q8IL11 whole entry): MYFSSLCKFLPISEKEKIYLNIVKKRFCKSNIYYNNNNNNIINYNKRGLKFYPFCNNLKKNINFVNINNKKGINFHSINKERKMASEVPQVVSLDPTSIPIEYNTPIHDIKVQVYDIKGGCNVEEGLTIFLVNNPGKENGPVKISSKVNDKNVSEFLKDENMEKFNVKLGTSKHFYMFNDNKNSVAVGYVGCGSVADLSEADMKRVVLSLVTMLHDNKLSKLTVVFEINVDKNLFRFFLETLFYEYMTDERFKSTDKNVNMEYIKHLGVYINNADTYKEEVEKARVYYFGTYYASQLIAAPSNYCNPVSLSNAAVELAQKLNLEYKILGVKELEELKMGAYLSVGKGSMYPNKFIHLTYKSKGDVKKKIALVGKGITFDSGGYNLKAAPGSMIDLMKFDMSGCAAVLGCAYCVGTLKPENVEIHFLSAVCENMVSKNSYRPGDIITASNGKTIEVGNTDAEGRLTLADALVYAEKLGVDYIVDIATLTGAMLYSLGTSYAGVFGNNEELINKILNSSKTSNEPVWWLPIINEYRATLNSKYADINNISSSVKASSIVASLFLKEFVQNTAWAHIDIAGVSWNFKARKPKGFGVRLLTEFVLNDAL

Cytochrome P450 2D6 = Cytochrome P450 2D6 (Homo sapiens, UniProt P10635);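 note: CYP2D6 member of a cytochrome P450 panel assay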
Cytochrome P450 2D6, sequence (P10635 whole entry): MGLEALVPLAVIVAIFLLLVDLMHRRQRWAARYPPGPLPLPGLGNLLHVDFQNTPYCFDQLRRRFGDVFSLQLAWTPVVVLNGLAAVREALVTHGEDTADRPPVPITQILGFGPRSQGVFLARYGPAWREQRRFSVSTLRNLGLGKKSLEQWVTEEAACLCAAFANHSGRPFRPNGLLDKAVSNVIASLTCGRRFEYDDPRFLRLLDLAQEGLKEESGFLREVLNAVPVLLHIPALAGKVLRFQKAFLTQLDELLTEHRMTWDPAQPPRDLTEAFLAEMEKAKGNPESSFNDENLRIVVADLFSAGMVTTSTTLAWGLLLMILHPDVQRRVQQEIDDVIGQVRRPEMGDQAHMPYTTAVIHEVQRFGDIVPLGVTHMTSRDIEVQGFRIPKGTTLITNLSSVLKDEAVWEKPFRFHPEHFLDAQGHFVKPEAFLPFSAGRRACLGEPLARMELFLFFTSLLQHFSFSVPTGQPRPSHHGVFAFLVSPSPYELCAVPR

Vero [3] = test: cells; assay type: functional, cell-based; details: Chlorocebus sabaeus
Vero [4] = test: cells; assay type: functional; details: Chlorocebus sabaeus
[5] = target: T4, Microphthalmia-associated transcription factor (Homo sapiens, UniProt O75030); test: reducers of TRPM1 reporter luminescence, concentration series – cell-based, SK-MEL-5, cherry-picked, set 3, MITF inhibitor project, dose response (AID 493073); assay type: functional;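 note: SK-MEL-5 melanoma cells with luciferase driven by the MITF target TRPM1 promoter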
T4 sequence (O75030 whole entry): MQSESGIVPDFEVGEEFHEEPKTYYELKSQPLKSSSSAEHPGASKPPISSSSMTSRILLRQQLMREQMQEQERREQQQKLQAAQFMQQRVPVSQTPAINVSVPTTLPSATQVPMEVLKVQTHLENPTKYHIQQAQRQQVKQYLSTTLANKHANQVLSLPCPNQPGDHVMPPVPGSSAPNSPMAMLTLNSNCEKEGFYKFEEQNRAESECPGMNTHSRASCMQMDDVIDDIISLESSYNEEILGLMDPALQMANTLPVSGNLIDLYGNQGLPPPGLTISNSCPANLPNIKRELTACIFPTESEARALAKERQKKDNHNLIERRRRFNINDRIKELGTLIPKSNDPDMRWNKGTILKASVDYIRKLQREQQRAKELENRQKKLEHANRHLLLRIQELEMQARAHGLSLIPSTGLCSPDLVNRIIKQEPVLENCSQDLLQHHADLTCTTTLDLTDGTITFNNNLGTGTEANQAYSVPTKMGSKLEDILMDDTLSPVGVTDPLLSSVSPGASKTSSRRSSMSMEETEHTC

Protein skinhead-1 = target: T5, Protein skinhead-1 (Caenorhabditis elegans, UniProt P34707); assay type: functional
T5 sequence (P34707 whole entry): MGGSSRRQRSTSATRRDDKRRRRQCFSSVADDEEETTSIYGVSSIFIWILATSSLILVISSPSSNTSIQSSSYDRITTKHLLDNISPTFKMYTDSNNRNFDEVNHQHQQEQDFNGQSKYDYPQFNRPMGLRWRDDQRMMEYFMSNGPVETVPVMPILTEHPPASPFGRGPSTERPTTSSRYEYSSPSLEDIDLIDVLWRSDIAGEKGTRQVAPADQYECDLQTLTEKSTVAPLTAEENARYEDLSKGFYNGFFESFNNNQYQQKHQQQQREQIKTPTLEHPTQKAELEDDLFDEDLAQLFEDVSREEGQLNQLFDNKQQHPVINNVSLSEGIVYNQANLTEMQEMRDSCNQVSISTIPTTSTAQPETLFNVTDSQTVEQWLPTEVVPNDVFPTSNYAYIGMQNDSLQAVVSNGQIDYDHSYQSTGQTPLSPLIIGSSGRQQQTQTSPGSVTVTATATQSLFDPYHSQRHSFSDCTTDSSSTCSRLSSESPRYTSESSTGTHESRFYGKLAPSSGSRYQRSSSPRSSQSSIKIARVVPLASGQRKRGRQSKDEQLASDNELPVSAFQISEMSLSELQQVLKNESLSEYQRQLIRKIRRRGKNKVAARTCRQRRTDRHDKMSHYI

Large T antigen = Large T antigen (Simian virus 40, UniProt P03070); assay type: functional, Betapolyomavirus macacae;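 note: Confirmatory-stage PubChem screen for compounds that inhibit SV40 T antigen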
Large T antigen, sequence (P03070 whole entry): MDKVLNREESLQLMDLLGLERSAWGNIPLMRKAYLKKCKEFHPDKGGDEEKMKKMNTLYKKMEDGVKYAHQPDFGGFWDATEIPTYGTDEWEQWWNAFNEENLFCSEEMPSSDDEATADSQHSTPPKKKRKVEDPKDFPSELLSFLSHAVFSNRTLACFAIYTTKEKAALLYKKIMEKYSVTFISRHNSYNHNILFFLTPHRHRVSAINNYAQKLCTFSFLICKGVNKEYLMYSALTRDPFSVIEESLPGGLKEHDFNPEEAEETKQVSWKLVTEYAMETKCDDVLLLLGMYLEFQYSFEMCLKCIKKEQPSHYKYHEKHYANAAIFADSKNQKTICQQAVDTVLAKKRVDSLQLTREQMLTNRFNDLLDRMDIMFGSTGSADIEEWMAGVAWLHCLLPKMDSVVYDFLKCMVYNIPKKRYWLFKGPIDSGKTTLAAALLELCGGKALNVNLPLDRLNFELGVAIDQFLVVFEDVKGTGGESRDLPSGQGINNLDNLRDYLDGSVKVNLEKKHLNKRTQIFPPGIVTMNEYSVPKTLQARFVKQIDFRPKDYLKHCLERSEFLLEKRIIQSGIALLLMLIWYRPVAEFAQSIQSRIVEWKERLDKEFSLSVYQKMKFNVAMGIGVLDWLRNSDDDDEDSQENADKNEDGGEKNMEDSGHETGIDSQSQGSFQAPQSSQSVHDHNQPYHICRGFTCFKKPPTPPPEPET

[6] = target: T6, DNA repair protein RAD52 homolog (Homo sapiens, UniProt P43351); assay type: functional, biochemical
T6 sequence (P43351 whole entry): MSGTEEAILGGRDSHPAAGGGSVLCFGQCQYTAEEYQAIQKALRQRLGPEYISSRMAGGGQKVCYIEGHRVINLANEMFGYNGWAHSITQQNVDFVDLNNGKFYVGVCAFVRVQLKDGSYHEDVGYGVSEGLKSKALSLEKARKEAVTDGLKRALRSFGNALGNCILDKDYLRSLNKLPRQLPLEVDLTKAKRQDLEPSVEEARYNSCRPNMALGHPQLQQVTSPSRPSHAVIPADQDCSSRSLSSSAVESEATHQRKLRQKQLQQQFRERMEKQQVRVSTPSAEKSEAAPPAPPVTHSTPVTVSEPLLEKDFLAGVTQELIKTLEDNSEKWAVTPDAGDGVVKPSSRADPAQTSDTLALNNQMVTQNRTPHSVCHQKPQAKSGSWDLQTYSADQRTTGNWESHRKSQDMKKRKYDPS

[7] = fluconazole-exposed Candida albicans growth modulators – fluorescence, retest, confirmation (AID 2467); assay type: functional, cell-based
[8] = NIH-3T3 fibroblast cytotoxicity, dose response, cytotoxicity control, cell-based, fluorescence, Alamar Blue, secondary assay (AID 2327); assay type: functional;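 note: NIH-3T3 mouse fibroblasts cultured with fluconazole at 8 µg/mL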
INS1 = test: INS-1E survival protection against cytokine death – cell-based, luminescence, retest, dose response (AID 449756); assay type: functional; details: Rattus norvegicus;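 note: cell death triggered by IL-1 beta plus TNF-alpha plus IFN-gamma mixture; protective hits raise ATP signal compared with cytokine alone wells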
[9] = target: Heat shock protein HSP 90-alpha (Homo sapiens, UniProt P07900); assay type: functional, organism-based

Eukaryotic translation initiation factor 4E, sequence (P63073 whole entry): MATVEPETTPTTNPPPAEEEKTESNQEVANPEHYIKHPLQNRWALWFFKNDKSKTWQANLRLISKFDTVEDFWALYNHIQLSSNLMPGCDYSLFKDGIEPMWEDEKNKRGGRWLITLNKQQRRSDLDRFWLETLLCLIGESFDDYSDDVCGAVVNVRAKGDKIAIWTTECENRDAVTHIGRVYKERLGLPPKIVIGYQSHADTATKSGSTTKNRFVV

For `O=C(Nc1cccc2ccccc12)c1ccc(Br)o1`, the IC50 [1] was > 64 µM (inactive).
For `S=C(Nc1cc(Cl)ccc1Oc1ccccc1)N1CCN(c2ccccn2)CC1`, the EC50 (Troponin, cardiac muscle) was > 71.4 µM (inactive).
For `C=CCn1c(=N)c(C(=O)NCCCOC)cc2c(=O)n3cccc(C)c3nc21`, the IC50 (Aminopeptidase N) was 47.6 µM (active).
With `COc1cccc(Cn2c(=O)c(-c3cccs3)nc3cnc(N4CCN(C)CC4)nc32)c1` the AC50 (Cytochrome P450 1A2) was 5.01 µM (inconclusive) and the AC50 (Cytochrome P450 2C9) was “inconclusive”.
With `COc1ccccc1/C=C/C=C1\Oc2c(ccc(O)c2CN2CCN(CCO)CC2)C1=O` the EC50 (Troponin, cardiac muscle) was 1.37 µM (active).
For `O=C1NN=C(CSc2nnc(S)s2)CS1`, the IC50 [2] was 9.78 µM (active).
For `C/C(NCC1CCCO1)=C1/C(=O)NC(=O)N(c2ccccc2)C1=O` (stereo not drawn), the IC50 [1] was > 64 µM (inactive).
With `Cc1ccc(C(=O)Nc2nc(=O)n(C(=O)c3ccccc3Cl)s2)cc1` the IC50 (Leucine aminopeptidase) was 13.8 µM (active) and the IC50 (Aminopeptidase N) was 38.8 µM (active).
With `COc1ccc(OC)c(N2C(=O)/C(=C/NCCN3CCNCC3)C(=O)NC2=S)c1` the EC50 (Troponin, cardiac muscle) was > 71.5 µM (inactive).
In the case of `CN(C)c1ccc(-c2cc(Nc3ccc(F)cc3)ncn2)cc1`, the AC50 (Cytochrome P450 2C9) is reported as “inconclusive” and the AC50 (Cytochrome P450 2D6) is reported as 39.8 µM (inconclusive).
For `COC(COC(N)=O)C1=C(N2CC2)C(=O)C(C)=C(N2CC2)C1=O` (stereo not drawn) [CARBOQUONE], the IC50 (Vero [3]) was > 25 µM (active) and the CC50 (Vero [4]) was 0.3 µM (active).
In the case of `CN=C(S)N=Nc1c(O)[nH]c2ccccc12`, the IC50 (Aminopeptidase N) is reported as 47.9 µM (active).
In the case of `COc1ccccc1NC(=O)c1ccc(NC(=O)c2cc3c(s2)CCC3)cc1`, the IC50 [1] is reported as > 64 µM (inactive).
For `Cc1cc(OCc2nnn[nH]2)c2c3c(c(=O)oc2c1)CCCC3`, the IC50 (Aminopeptidase N) was 68.9 µM (active).
For `CC(NC(=O)C12CC3CC(CC(C3)C1)C2)C(=O)NN=Cc1ccc([N+](=O)[O-])o1` (stereo not drawn), the AC50 [5] was 7.79 µM (active).
With `CCOC(=O)c1ccc2c(c1)nc(SCC(=O)c1cc3ccccc3o1)n2CC` the IC50 [1] was > 64 µM (inactive) and the IC50 (Protein skinhead-1) was > 100 µM (inactive).
For `Cc1ccc(C2(C)NC(=O)N(CC(=O)Nc3nc(-c4ccccn4)cs3)C2=O)cc1` (stereo not drawn), the IC50 (Large T antigen) was > 100 µM (active) and the IC50 [2] was 25.6 µM (active).
In the case of `CCc1nc(N=C(N)N)nc2ccccc12`, the AC50 [6] is reported as 20.2 µM (active) and the IC50 (Aminopeptidase N) is reported as 48.5 µM (active).
For `Sc1nnc(-c2ccccn2)n1/N=C/c1ccccc1`, the IC50 [2] was 9.26 µM (active).
In the case of `CCCCOc1ccc(C(=O)NNC(=S)NC(=O)CC)cc1`, the IC50 (Vero [3]) is reported as 5.78 µM (active), the EC50 [7] is reported as 0.621 µM (active) and the EC50 [8] is reported as > 160 µM (inactive). The AC50 (INS1) was 3.17 µM (active), the CC50 (Vero [4]) was 13.2 µM (active) and the AC50 [9] was 4.33 µM (active).
With `Cc1ccc(S(=O)(=O)CC(O)CN2CCCC2=O)cc1` (stereo not drawn) the AC50 (Cytochrome P450 2C9) was “inconclusive”.
